Data reported in EP4755878A1, “PHOTOCHROMIC COMPOUND, PHENOL DERIVATIVE, CURABLE COMPOSITION, OPTICAL ARTICLE, LENS, AND EYEGLASS” (TOKUYAMA CORPORATION, priority 2023, dated 2025).

Tests used:
[1] = Photochromic properties of photochromic cured product made by kneading method; format: physicochemical; conditions: for Maximum absorption wavelength: 1 mm, after color development, second absorption wavelength (lower line of pair); for Color developing density at 23°C: absorbance difference after 240 seconds irradiation at 23°C; for Color developing density at 35°C: absorbance difference after 240 seconds irradiation at 35°C
Source text: First, the photochromic compound obtained in Example 1, additives, and polymerizable compounds were mixed to obtain a curable composition. As the polymerizable compounds, a blend of the following polymerizable monomers in combination was used. • 1,3-Bis(isocyanatomethyl)cyclohexane: 36.7 parts by mass Pentaerythritol tetrakis(3-mercaptopropionate): 39.4 parts by mass • Polyoxyethylene polyoxypropylene lauryl ether (WONDERSURF 140 from Aoki Oil Industrial Co., Ltd.): 17.4 parts by mass 1-Decanethiol: 2.8 parts by mass • RX-1 prepared according to the method described in Patent Document 12: 3.8 parts by mass Note that in the curable composition, the photochromic compound was added to be 0.106 mmol taking the total amount of the polymerizable monomers as 100 g.
The following additives were used. Dimethyltin dichloride: 0.05 parts by mass • Irganox 245 from BASF Japan Ltd.: 0.1 parts by mass • 2-Ethylhexyl 4-methoxycinnamate: 0.6 parts by mass
The prepared curable composition was sufficiently degassed, and then injected into a glass mold provided with a gap of 1 mm, and the curable composition was polymerized via casting polymerization. […] After the polymerization, the cured product was removed from the glass mold, to obtain photochromic cured product having a thickness of 1 mm. The resulting photochromic cured product was evaluated in the same manner as in Example 23.
(Examples 51 to 60, and Comparative Examples 11 to 14) Photochromic cured products were formed using the photochromic compound shown in Table 6 in the same manner as in Example 50.

[2] = Photochromic properties of photochromic layer (binder sheet) made by binder method; conditions: for Color developing density at 23°C: absorbance difference after 240 seconds irradiation at 23°C; for Color developing density at 35°C: absorbance difference after 240 seconds irradiation at 35°C; for Maximum absorption wavelength: after color development, second absorption wavelength (lower line of pair)
[3] = Photochromic properties of photochromic laminate (plastic lens) made by coating method; format: physicochemical; conditions: for Color developing density at 23°C: absorbance difference after 240 seconds irradiation at 23°C; for Color developing density at 35°C: absorbance difference after 240 seconds irradiation at 35°C; for Maximum absorption wavelength: after color development, second absorption wavelength (lower line of pair)
Source text: First, the photochromic compound obtained in Example 1 above, a photoinitiator, and polymerizable compounds were mixed to obtain a curable composition.
As the polymerizable compounds, a blend of the following radically-polymerizable monomers in combination was used.
• Polyethylene glycol dimethacrylate (average molecular weight: 736): 42 parts by mass • Polyethylene glycol dimethacrylate (average molecular weight: 536): 12 parts by mass • Trimethylolpropane trimethacrylate: 38 parts by mass • γ-Methacryloyloxypropyltrimethoxysilane: 2 parts by mass • Glycidyl methacrylate: 1 part by mass.
Note that in the curable composition, the photochromic compound obtained in Example 1 above was added to be 0.25 mmol taking the total amount of the radically-polymerizable monomers as 100 g. The following were used as additives.
(stabilizer, Irganox 245): 1 part by mass Bis(1,2,2,6,6-pentamethyl-4-piperidyl) sebacate: 3 parts by mass Leveling agent from DuPont Toray Specialty Materials K.K. (L7001): 0.1 parts by mass.
Note that the above-mentioned additives are described with blending ratios taking a total of the radically-polymerizable monomers as 100 parts by mass.
Using this curable composition, a photochromic laminate was obtained by a lamination process described below with the polymerization described below being carried out.
First, a thiourethane plastic lens with a center thickness of 2 mm and a refractive index of 1.60 was prepared as an optical substrate. Note that the thiourethane plastic lens had been alkaline-etched beforehand in a 10% aqueous sodium hydroxide solution at 50°C for 5 minutes, and then thoroughly washed with distilled water.
A spin coater (1H-DX2, manufactured by MIKASA CO., LTD) was used to coat a surface of the above-mentioned plastic lens with a moisture-curable primer (product name: TR-SC-P, manufactured by Tokuyama Corporation) at a rotation speed of 70 rpm for 15 seconds, followed by at 1000 rpm for 10 seconds. Then, about 2 g of the photochromic curable composition obtained as above was spin-coated at a rotation speed of 60 rpm for 40 seconds, followed by at 600 rpm for 10 to 20 seconds so as to achieve a photochromic coating layer with a film thickness of 40 µm.
The lens having the surface coated with the photochromic curable composition (photochromic coating layer) was irradiated with light for 90 seconds in a nitrogen gas atmosphere using a metal halide lamp with an output of 200 mW/cm^2 to cure the coating film. The coating was then further heated at 110°C for 1 hour to produce a photochromic laminate with a photochromic layer.
Photochromic laminates were produced using the photochromic compounds obtained in Examples 2 to 19 in the same manner as in Example 20.
Photochromic laminates were obtained in the same manner as in Example 20 using photochromic compounds represented by the following formulas (A) to (F). [drawing 143] [drawing 144] [drawing 145] [drawing 146] [drawing 147] [drawing 148] [drawing 149] [drawing 150]
The resulting photochromic laminates were evaluated by the methods described below.
Table 3 summarizes the results of Examples 20, 32, and 34, and Comparative Examples 1 to 6, and Table 4 summarizes the results of Examples 21 to 31, 33, and 35 to 38. The relationship between the fading half-life at 23°C and the color development ratio at the higher temperature of the photochromic laminates according to Examples and Comparative Examples are shown in a graph in FIG. 1.
Photochromic laminates were formed using the photochromic compound obtained in Examples 61 to 71 in the same manner as in Example 20.

Row | SMILES | Maximum absorption wavelength [1] [nm] | Color developing density at 23°C ([1]; first absorption wavelength) | Color developing density at 23°C ([1]; second absorption wavelength) | Color developing density at 35°C ([1]; first absorption wavelength) | Color developing density at 35°C ([1]; second absorption wavelength) | Color developing density at 23°C ([2]; first absorption wavelength) | Color developing density at 23°C ([2]; second absorption wavelength) | Color developing density at 35°C ([2]; first absorption wavelength) | Color developing density at 35°C ([2]; second absorption wavelength) | Maximum absorption wavelength [2] [nm] | Color developing density at 23°C ([3]; first absorption wavelength) | Color developing density at 23°C ([3]; second absorption wavelength) | Color developing density at 35°C ([3]; first absorption wavelength) | Color developing density at 35°C ([3]; second absorption wavelength) | Maximum absorption wavelength [3] [nm]
1 | CCCCOc1ccc(C2(c3ccc(OC)cc3)C=Cc3c4c(c5ccc(C)cc5c3O2)-c2ccc(N3CCOc5ccccc53)cc2C4(CCCC(F)(F)F)CCCC(F)(F)F)cc1 (stereo not drawn) [Formula (3-3)] | 588 | 0.94 - | 1.36 - | 0.73 - | 1.06 - | 0.94 - | 1.34 - | 0.68 - | 1.00 - | 580 | 0.91 - | 1.33 - | 0.69 - | 1.02 - | 581
2 | COc1ccc(C2(c3ccc(N4CCOCC4)cc3)C=Cc3c4c(c5ccc(OC)cc5c3O2)-c2ccc(N(C)c3ccccc3)cc2C42CCCCCCC2)cc1 (stereo not drawn) [Formula (4-3)] | 631 | 0.69 - | 1.17 - | 0.49 - | 0.84 - | 0.68 - | 1.16 - | 0.47 - | 0.80 - | 627 | 0.68 - | 1.14 - | 0.48 - | 0.81 - | 626
3 | COCCCCC1(CCCCOC)c2cc(N(C)c3ccccc3)ccc2-c2c1c1c(c3cc(OC)c(OC)cc23)OC(c2ccc(OC)cc2)(c2ccc(OC)cc2)C=C1 [Formula (2-7)] | 615 | 1.50 - | 0.86 - | 1.12 - | 0.66 - | 1.47 - | 0.85 - | 1.06 - | 0.61 - | 609 | 1.43 - | 0.83 - | 1.06 - | 0.62 - | 608

More lines, now with the values ahead:

Row | Maximum absorption wavelength [1] [nm] | Color developing density at 23°C ([1]; first absorption wavelength) | Color developing density at 23°C ([1]; second absorption wavelength) | Color developing density at 35°C ([1]; first absorption wavelength) | Color developing density at 35°C ([1]; second absorption wavelength) | Color developing density at 23°C ([2]; first absorption wavelength) | Color developing density at 23°C ([2]; second absorption wavelength) | Color developing density at 35°C ([2]; first absorption wavelength) | Color developing density at 35°C ([2]; second absorption wavelength) | Maximum absorption wavelength [2] [nm] | Color developing density at 23°C ([3]; first absorption wavelength) | Color developing density at 23°C ([3]; second absorption wavelength) | Color developing density at 35°C ([3]; first absorption wavelength) | Color developing density at 35°C ([3]; second absorption wavelength) | Maximum absorption wavelength [3] [nm] | SMILES
4 | 586 | 0.76 - | 0.98 - | 0.53 - | 0.69 - | 0.75 - | 0.98 - | 0.50 - | 0.67 - | 580 | 0.69 - | 0.96 - | 0.48 - | 0.65 - | 579 | CCCCOc1ccc(C2(c3ccc(OCCCC)cc3)C=Cc3c4c(c5ccc(OC)cc5c3O2)-c2ccc(C)cc2C4(C)C)cc1 [Formula (B), reference compound]
5 | 625 | 0.80 - | 1.18 - | 0.62 - | 0.94 - | 0.80 - | 1.17 - | 0.58 - | 0.88 - | 617 | 0.78 - | 1.14 - | 0.57 - | 0.86 - | 617 | COc1ccc(C2(c3ccc(OC)cc3)C=Cc3c4c(c5ccc(OC)cc5c3O2)-c2ccc(N3CCCCC3)cc2C4(C)C)cc1 [Formula (D), reference compound]
6 | 625 | 1.35 - | 0.72 - | 0.95 - | 0.50 - | 1.33 - | 0.72 - | 0.89 - | 0.49 - | 622 | 1.30 - | 0.71 - | 0.90 - | 0.49 - | 622 | CCCOc1ccc(C2(c3ccc(OC)cc3)C=Cc3c4c(c5cc6c(cc5c3O2)OC(C)(C)S6)-c2ccc(N3CCCc5ccccc53)cc2C4(CCCOC)CCCOC)cc1 (stereo not drawn) [Formula (7-4)]
7 | 614 | 1.05 - | 0.92 - | 0.78 - | 0.69 - | 1.04 - | 0.91 - | 0.73 - | 0.64 - | 607 | 1.01 - | 0.90 - | 0.74 - | 0.66 - | 609 | CCCOc1ccc(C2(c3ccc(OC)cc3)C=Cc3c4c(c5cc(C)c(OC)cc5c3O2)-c2ccc(N3CCSc5ccccc53)cc2C4(CCC)CCC)cc1 (stereo not drawn) [Formula (9-2)]
